# Assay: Human HepG2 cell viability assay in 384 well format
# Type: toxicity, cell-based
# Parameters: dose 125 nL, time 70.5 hour; cytotoxicity at 70.5 h: concentration not given beside the values
# Details: HepG2 cells, read-out: Inhibition
row,Structure (SMILES),cytotoxicity at 70.5 h
1,O=C(c1ccc(Cl)cc1)N1CC2(CCNC2)OCc2ccccc21 (configuration not stated),-5.43%
2,O=C(NC1CC1)C1CCc2nnc(-c3cccc(C(F)(F)F)c3)n21 (configuration not stated),-11.5%
3,O=C1CC2(CCN(C(=O)c3ccccc3)C2)Nc2ccccc2N1 (configuration not stated),-17.8%
4,COc1ccccc1-c1nc(C(=O)N(C)C)n2ccncc12,-8.75%
5,O=C1NC2(Cc3ccccc31)CN(CC1CCNC1)C2 (configuration not stated),-11.5%
6,O=C1NC2(Cc3ccccc31)CN(CC1CCCC1)C2,-11.8%
7,O=C1NC2(Cc3ccccc31)CN(CC1CCNCC1)C2,12.6%
8,CC(C)CNC(=O)c1cc(C2CC2)nc2c1c(C1CCCN1)nn2C (configuration not stated),13.8%
9,CC(=O)N1CC2(CCCCN2Cc2ccc(Cl)cc2)Cc2ccccc21 (configuration not stated),5.47%
10,CC(=O)N1CC2(CCCN(Cc3ccc(Cl)cc3)C2)Cc2ccccc21 (configuration not stated),5.61%
11,CC(=O)N1CC2(CCN(Cc3ccc(Cl)cc3)CC2)Cc2ccccc21,9.92%
12,O=C(NCc1cccnc1)c1ccc2nccn2c1,1.82%
13,O=S1(=O)NC2(CCCN(Cc3ccc(Cl)cc3)C2)COc2ccccc21 (configuration not stated),22.5%
14,O=S1(=O)NC2(CCCN(Cc3ccc(F)cc3)C2)COc2ccccc21 (configuration not stated),-3.88%
15,CN(C)C(=O)c1nc(-c2ccc(S(C)(=O)=O)cc2)c2ccccn12,-12.8%
16,O=C(N1CCCCC1)N1CCN(c2ccc(Cl)nn2)C(=O)C1,-5.68%
17,Cc1ccc(CCN2CCCC23Cc2ccccc2CNC3=O)cc1 (configuration not stated),-4.38%
18,Cc1cc(C)c(CN2CCCC23Cc2ccccc2CNC3=O)c(C)c1 (configuration not stated),-9.48%
19,CS(=O)(=O)N1Cc2ccccc2CC2(CCN(Cc3ccccn3)C2)C1 (configuration not stated),-10.1%
20,CC(C)C(=O)N1Cc2ccccc2CC2(CCCN2C)C1 (configuration not stated),-10.9%
21,CN1CCCCC12Cc1ccccc1CN(C(=O)c1ccccc1)C2 (configuration not stated),-5.36%
22,O=C(c1ccc(Cl)cc1)N1CCC2(C1)C(=O)Nc1ccccc12 (configuration not stated),-7.9%
23,CC(=O)N1CCC2(CC1)CC(NS(C)(=O)=O)c1ccccc1O2 (configuration not stated),-4.04%
24,CN1Cc2ccccc2NC(=O)C12CCNC2 (configuration not stated),-2.63%

row,Structure (SMILES),cytotoxicity at 70.5 h
1,N#Cc1ccc(CN2CCCC3(Cc4ccccc4CNC3=O)C2)cc1 (configuration not stated),31.4%
2,O=C1NCc2ccccc2CC12CCCN(Cc1ccsc1)C2 (configuration not stated),2.74%
3,O=C1NCc2ccccc2CC12CCN(Cc1c(F)cccc1Cl)C2 (configuration not stated),-5.69%
4,O=C(NCC1CC1)c1cc(C2CC2)nc2onc(C3CCCNC3)c12 (configuration not stated),-7.5%
5,CC(C)CNC(=O)c1cc(C2CC2)nc2onc(C3CCNCC3)c12,-3.04%
6,O=C(c1ccc(Cl)cc1)N1CCC(N2CCCOC2=O)CC1,-6.91%
7,O=C(C1CCCCC1)N1CCC2(COc3ncccc3S(=O)(=O)N2)C1 (configuration not stated),-4.42%
8,O=C(NC1CCCCC1)N1CCCC1c1nnc2n1CCNC2 (configuration not stated),19.4%
9,O=C(N1CCCCC1)N1CCCC1c1nnc2n1CCNC2 (configuration not stated),17.6%
10,CN1CCC2(Cc3ccccc3CN(C(=O)c3ccc(Cl)cc3)C2)C1 (configuration not stated),35.9%
11,CN1CCC2(Cc3ccccc3CN(C(=O)CCN)C2)C1 (configuration not stated),27.3%
12,O=C1Nc2ccccc2CC12CCCN2Cc1ccccn1 (configuration not stated),29.1%
13,CC(C)NC(=O)NCc1nnc2n1C(C(=O)N(C)C)CC2 (configuration not stated),-3.97%
14,CC(C)NC(=O)C1CCc2nnc(CNC(=O)C3CC3)n21 (configuration not stated),-6.43%
15,CN1CC(=O)N(C2CCC2)Cc2c(NC3CCNCC3)ncnc21,-3.78%
16,CN1CC(=O)N(C2CCNC2)Cc2c(NC3CCCC3)ncnc21 (configuration not stated),-5.19%
17,CN1CC(=O)N(C2CCCNC2)Cc2c(NC3CCC3)ncnc21 (configuration not stated),-3.06%
18,CN(Cc1nc2ccccc2[nH]1)C(=O)CN(C)c1ccc(Cl)cn1,7.7%
19,NC(=O)C(NC1CCN(Cc2ccc(F)cc2)CC1)c1ccccc1 (configuration not stated),-13.1%
20,COc1ccccc1C(NC(=O)CN(C)C(C)C)c1noc(C)n1 (configuration not stated),-2.25%
21,CC(C)(CNC(=O)c1ccco1)NC(=O)OC(C)(C)C,-12.7%
22,CC(C)(CNC(=O)c1ccc(Cl)o1)NC(=O)OC(C)(C)C,22.2%
23,Cn1cc(N2CCN(c3ccc(C#N)c(Cl)c3)CC2=O)cn1,-14.1%
24,Cn1ccc(N2CCCC(NC(=O)c3ccsc3)C2=O)n1 (configuration not stated),20.9%

row,Structure (SMILES),cytotoxicity at 70.5 h
1,NC(=O)CCn1ccc(NCc2cc(F)ccc2Br)n1,-10.5%
2,O=C(O)c1cnc(OCC2CC2)c(Cl)c1,-0.42%
3,Cn1cc(N2CCN(c3ccc(C#N)cc3Br)CC2=O)cn1,-4.85%
4,CC(CO)NC(=O)Nc1ccc(CC#N)cc1 (configuration not stated),-4.42%
5,CCC(C)(CC(=O)OC)NCc1noc(C)n1 (configuration not stated),26.6%
6,CSCCC(=O)N1CCN(CC(C)O)CC1 (configuration not stated),-2.96%
7,CCN(Cc1ncc(C(C)(C)C)o1)Cc1ccccc1C,-1.58%
8,CCN(CC(C)O)C(=O)Nc1cnn(CCOC)c1 (configuration not stated),6.07%
9,COCCN(Cc1ccc(C)o1)C(=O)Nc1nnc(C(F)F)s1,-7.33%
10,CCN1CCN2CCCN(S(=O)(=O)c3cccc(F)c3)C2C1=O (configuration not stated),-8.84%
11,CS(=O)(=O)Cc1cccc(CNS(=O)(=O)c2ccc(F)c(F)c2)c1,-8.75%
12,Cc1ccc(F)c(S(=O)(=O)NCc2cccc(CS(C)(=O)=O)c2)c1,-18%
13,Cc1nn(C)c(C)c1C(=O)N1CCN(C(=O)CCC2CCCCC2)CC1,-13.4%
14,COC(=O)CC(NC(=O)CCn1cccn1)c1ccc(C)cc1 (configuration not stated),-0.705%
15,Cc1nc(C(=O)N(CC(=O)N(C)C)CC(F)(F)F)c2ccccn12,-4.52%
16,Cc1occc1C(=O)NCC(O)c1ccc(Cl)s1 (configuration not stated),3.32%
17,NC(=O)CN1CCN(S(=O)(=O)N2CCCC2c2ccco2)CC1 (configuration not stated),-3.32%
18,O=c1[nH]c(C2CCOC2)nc2cc(F)c(F)cc12 (configuration not stated),-10.3%
19,CC(C)CNC(=O)C(C)N1CCN(C2CCN(C(C)C)CC2)CC1 (configuration not stated),-12.6%
20,COc1cc(CNc2cc(-c3ccoc3C)nn2CCO)ccc1F,11.9%
21,O=C(c1ccc(-n2cccn2)nc1)N1CCC(c2ccc(O)cc2)CC1,-5.83%
22,COc1ccc(C(C)NCc2nnc(C)s2)cc1F (configuration not stated),-2.29%
23,Cc1nnc(CNC(C)c2cc(C)c(F)c(C)c2)s1 (configuration not stated),-5.2%
24,Cc1cc(C)cc(C(C)NCc2nnc(C)s2)c1 (configuration not stated),-12%

row,Structure (SMILES),cytotoxicity at 70.5 h
1,COCCN(Cc1ccc(C)o1)C(=O)Nc1ncc(C)s1,-8.73%
2,CCN(Cc1cccc(Cl)c1)Cc1ncc(C(C)(C)C)o1,-1.17%
3,COc1cc(NCCNC(=O)c2cc[nH]c2C)cc(OC)c1,3.9%
4,NC(=O)CC1CCN(S(=O)(=O)N2CCCC2c2ccco2)CC1 (configuration not stated),-5.7%
5,COC(=O)CC(NC(=O)CCCn1cccn1)c1ccc(Cl)cc1 (configuration not stated),-14.1%
6,COCc1nnc(-c2cccc(C(=O)N(C)CC(C)(C)C)c2)o1,-14.1%
7,Cc1noc(CCCNC(=O)C2CSCN2C(=O)C(C)(C)C)n1 (configuration not stated),18.7%
8,Cc1ccc(CCCC(=O)N2CCC(=O)Nc3cccnc32)s1,12.9%
9,Cc1ncsc1CCN(C)Cc1ccc(Br)o1,9.94%
10,CC(C)c1nnc(NC(=O)Cc2csc(-c3nnc[nH]3)n2)s1,22.4%
11,Cc1cnn(C2CN(c3nc(-c4ccncc4)nc4c3CCC4)C2)c1,-6.05%
12,CCC(C)c1csc(NC(=O)c2sc(-c3nnc[nH]3)nc2C)n1 (configuration not stated),-9.94%
13,Cc1nn2cccnc2c1C(=O)NCc1ccccc1OCC1CC1,-13.8%
14,N#Cc1cccnc1Nc1ccc(N2CCC(C(N)=O)CC2)cc1,4.18%
15,CNC(=O)CCOC(=O)c1cccc(-n2cccn2)c1,-10.7%
16,O=C(Cc1cccnc1)N1CCCC(c2cc(C(F)(F)F)[nH]n2)C1 (configuration not stated),-2.42%
17,FC(F)(F)c1cc(C2CCCN(Cc3cccnc3)C2)n[nH]1 (configuration not stated),9.85%
18,Cc1ccc(CCCC(=O)N2CC(=O)Nc3cccnc32)s1,-11.1%
19,CN(Cc1csc2ccccc12)C(=O)NC1CCS(=O)(=O)C1 (configuration not stated),-7.9%
20,CC(NCc1nnc2n1CCCC2)c1nc(-c2cccs2)no1 (configuration not stated),2.78%
21,Cc1noc(CCCC(=O)N2CSCC2C(=O)NCC2CC2)n1 (configuration not stated),-7.96%
22,FC(F)(F)c1cc(C2CCCN(Cc3ccncc3)C2)n[nH]1 (configuration not stated),-1.55%
23,Cc1ncc(CNC(CCO)C2CCCCC2)s1 (configuration not stated),1.31%
24,Cc1ccc(C)c(S(=O)(=O)CCN2CCCC2Cn2cccn2)c1 (configuration not stated),-7.12%

row,Structure (SMILES),cytotoxicity at 70.5 h
1,CCc1nnc2n1CCN(C(=O)CCOc1ccc(C)cc1C)C2,-4.53%
2,CCc1nnc2n1CCN(C(=O)CCOc1cc(C)ccc1C)C2,-5.39%
3,Cc1nc(C(=O)N(CC2CCCO2)c2ccncc2)cs1 (configuration not stated),-16.6%
4,CC1CCCN(C(=O)c2ccc(N(C)Cc3cnn(C)c3)nc2)C1 (configuration not stated),20.1%
5,CC1CN(c2ccc(NC(=O)Cn3cccn3)cc2)CCO1 (configuration not stated),-5.08%
6,CC(C)c1n[nH]c(C2CN(C(=O)COCC(F)(F)F)CCO2)n1 (configuration not stated),-12.9%
7,COc1ccc(CCCC(=O)NCc2c(C)noc2C)cc1F,20%
8,O=C(NCCNC(=O)c1ccc(Cl)cc1)NCCn1cccc1,-4.35%
9,Cc1c(CN2CCCC(C(=O)Nc3ccccc3)C2)cc(C#N)n1C (configuration not stated),-2.58%
10,CCOc1cc(CNCC2CN(C3CC3)CCO2)ccc1OC (configuration not stated),-8.19%
11,COc1ccc(CNCC2CN(C3CC3)CCO2)cc1F (configuration not stated),-8.08%
12,CN(C)C1CCCN(C(=O)NCCc2cc(F)ccc2F)C1 (configuration not stated),23.5%
13,CC(CC(=O)N1CCCN(Cc2nccn2C)CC1)n1cccc1 (configuration not stated),-12.4%
14,N#Cc1cccnc1N1CCC(OCc2ccccc2)CC1,-8.71%
15,Cc1ccc(CCC(=O)N2CCn3c(nnc3C(C)C)C2)cc1Cl,24.9%
16,Cn1cnnc1C1CCN(C(=O)CCCOCc2ccccc2)CC1,-11.3%
17,CC(C)c1n[nH]c(C2CN(C(=O)COc3ccc(F)cc3)CCO2)n1 (configuration not stated),-8.14%
18,Cc1ccc(C)c(S(=O)(=O)CCN2CCCC2Cn2cncn2)c1 (configuration not stated),-14.3%
19,O=C(Nc1cccc(C(=O)OCC2CCCN2)c1)c1ccoc1 (configuration not stated),5.78%
20,O=C(OCC1CCCN1)c1cccc(NC(=O)c2ccco2)c1 (configuration not stated),-14.8%
21,Cc1occc1C(=O)Nc1cccc(C(=O)OCC2CCCN2)c1 (configuration not stated),23.7%
